Measured values from publication PMC4565880, “Purification and characterization of a novel β-carotene-9′,10′-oxygenase from Saccharomyces cerevisiae ULI3” (Biotechnology Letters, 2015).

These molecules were tested on T1, ScBCO2 (β-carotene-9′,10′-oxygenase) (assay: HPLC cleavage assay; Hanes-Woolf plot). Conditions: standard assay: 100 mM Tricine/KOH pH 8.0, 37 °C, 12.5 μM Fe2SO4, Tween 40; temperature of kinetic runs not stated; substrate 10-800 μM.
T1 construct: native enzyme purified from culture supernatant (ammonium sulfate, Q Sepharose, Superdex-200); ~50 kDa by SDS-PAGE; peptide mass fingerprint matched no database entry
Format: biochemical, Saccharomyces cerevisiae
Text: HPLC cleavage assay; Hanes-Woolf plot on ScBCO2 (β-carotene-9′,10′-oxygenase)

Km [µM]	SMILES
105 ± 0.3	CC1=C[C@H](O)CC(C)(C)[C@H]1/C=C/C(C)=C/C=C/C(C)=C/C=C/C=C(C)/C=C/C=C(C)/C=C/C1=C(C)C[C@@H](O)CC1(C)C [Lutein]
48 ± 0.3	CC1=CCCC(C)(C)[C@H]1/C=C/C(C)=C/C=C/C(C)=C/C=C/C=C(C)/C=C/C=C(C)/C=C/C1=C(C)CCCC1(C)C [α-carotene]
37 ± 0.2	CC1=C(/C=C/C(C)=C/C=C/C(C)=C/C=C/C=C(C)/C=C/C=C(C)/C=C/C2=C(C)CCCC2(C)C)C(C)(C)CCC1 [β-carotene]
